Test results: US12257264B2, “Combination therapy for HIV with adenosine derivative and capsid inhibitors” (Brii Biosciences, Inc., priority 2021, dated 2025)

Columns and labels:
[1] = Plasma stability and conversion to EFdA
Description: The pooled frozen plasma was thawed in a water bath at 37° C. prior to experiment. Plasma was centrifuged at 4000 rpm for 5 min and the clots were removed if any. The pH will be adjusted to 7.4±0.1 if required.
Preparation of test compounds and positive control (propantheline bromide): 1 mM intermediate solution was prepared by diluting 10 μL of the stock solution with 90 μL MeOH; 1 mM intermediate of positive control Propantheline was prepared by diluting 10 μL of the stock solution with 90 μL ultrapure water. 100 μM dosing solution was prepared by diluting 20 μL of the intermediate solution (1 mM) with 180 μL MeOH. 98 μL of blank plasma was spiked with 2 μL of dosing solution (100 μM) to achieve 2 μM of the final concentration in duplicate and samples were incubated at 37° C. in a water bath. At each time point (0, 10, 30, 60 and 120 min), […] of stop solution (0.1% FA in MeOH containing 200 ng/mL tolbutamide and 200 ng/mL Labetalol) was added to precipitate protein and mixed thoroughly. Centrifuged sample plates at 4,000 rpm for 10 min. An aliquot of supernatant (100 μL) was transferred from each well to another plates.
Data analysis: The % remaining of test compound after incubation in plasma was calculated using following equation: % Remaining=100×(PAR at appointed incubation time/PAR at T0 time) where PAR is the peak area ratio of analyte versus internal standard (IS) (LC/MS/MS mobile phase condition: 0.1% Formic Acid in Water/0.1% Formic Acid in Acetonitrile. The appointed incubation time points are TO (0 min), Tn (n=0, 10, 30, 60, 120 min). Liver S9 Stability

[2] = Liver S9 stability and conversion to EFdA; assay type: in vitro ADME, human
Description: Intermediate solution: Dilute 5 μL of compounds or controls (7-ethoxycoumarin) from stock solution (10 mM) with 495 μL MeOH (Conc.: 100 μM, 1% DMSO, 99% MeOH). Stop solution: Cold ACN (including 100 ng/mL Tolbutamide and Labetalol as internal standard). Add 2 μL test compound or control working solution/well to all plates (T0, T5, T10, T20, T30, T60, NCF60) except matrix blank. Add 600 μL/well stop solution (cold in 4° C., including 100 ng/mL Tolbutamide/100 ng/mL Labetalol) to terminate the TO plate, then put it on ice. Dispense 840 μL/well S9 solution to 96-well plate as reservoir according to plate map. Then add 100 μL/well to every plate by Apricot. Incubate S9 solution and compound at 37° C. for about 10 min except NCF60 and TO. After adding S9 solution and 98 μLPB buffer to NCF60, incubate at 37° C. without pre-warming, start timer 1. After 60 min, add 600 μL/well stop solution to terminate the reaction. After pre-warming, dispense 760 μL/well cofactor solution to 96-well plate as reservoir according to plate map. Then add 98 μL/well to every plate by Apricot to start reaction. Incubate at 37° C., start timer 2, Add 600 μL/well stop solution (cold in 4° C., including 100 ng/mL Tolbutamide and Labetalol) to terminate the reaction. Samples are centrifuged at 4000 rpm for 20 min. While centrifuging, load 8×new 96-well plate with 300 μL HPLC water, then transfer 100 μL supernatant, mix with water for LC/MS/MS, transferred to Bioanalytical Services for LC-MS/MS analysis. Use equation of first order kinetics to calculate t1/2 and CL: Equation of first order kinetics: […]

[3] = tested on: HIV-1 NL4-3 in MT-4 cells; test: Two-drug combination antiviral cytoprotection (CPE) assay, MacSynergy II analysis; assay type: cell-based; conditions: HIV-1 NL4-3 virus in MT4 cells
Description: On the day preceding the assay, the cells were split 1:2 to assure they were in an exponential growth phase at the time of infection.
Combination cytotoxicity was evaluated in parallel on two identical assay plates (i.e., duplicate measurements) that included cell control wells.

For `C#C[C@]1(COC(=O)OCc2oc(=O)oc2C)O[C@@H](n2cnc3c(N)nc(F)nc32)C[C@@H]1O` [Formula 4-A, ((2R,3S,5R)-5-(6-amino-2-fluoro-9H-purin-9-yl)-2-ethynyl-3-hydroxytetrahydrofuran-2-yl)methyl ((5-methyl-2-oxo-1,3-dioxol-4-yl)methyl) carbonate], the “Conversion to the target drug (EFdA) in human plasma assay” value [1] was “converted to the target drug efficiently”, the “Stability in Human Plasma Formation of EFdA” value ([1]; human plasma) was “Yes” and the half-life at 2 µM ([1]; human, plasma, pH 7.4) was < 50 min. For the same compound, the “Conversion to the target drug (EFdA) in liver S9 assay” value [2] was “converted to the target drug efficiently”, the “Stability in Human Liver S9 Formation of EFdA” value ([2]; human liver S9) was “Yes” and the half-life at 1 µM ([2]; human liver S9, 37° C.) was < 50 min. The “Antiviral activity upon combination with lenacapavir” value [3] was “synergistic antiviral activity”.
